# From patent EP4332093A1, “SALT CONTAINING PIPERAZINE POLYCYCLIC DERIVATIVE, CRYSTAL FORM THEREOF, PREPARATION METHOD THEREFOR, AND USE THEREOF” (Shanghai Hansoh Biomedical Co., Ltd., priority 2021, dated 2022)
# Where a name gives a salt, the structure may show the parent alone.
# Experiments:
# Type in all cases: physicochemical
# [1] = Hygroscopicity experiment of crystal form A of hydrochloride
# [2] = Solid stability experiment of crystal forms of salt (5 and 10 days); conditions: all conditions: light 5000lx, 60°C, 92.5% RH, 50°C 75% RH; 5 and 10 days
# Experimental: About 1 mg of different crystal forms of salt were taken and placed under the conditions of light 5000lx, high temperature 60°C, high humidity 92.5%RH, high temperature and high humidity 50°C 75%RH for 5 days and 10 days. The salt content was determined by HPLC and external standard method, and the change of relevant substances was calculated by chromatographic peak area normalization method.
# [3] = Crystal form stability study of hydrochloride for 30 days; conditions: 30 days; light 5000lux, 60°C, 92.5% RH, 40°C & 75% RH
# Experimental: The diluent 80% methanol solution was added to prepare a solution containing about 0.5 mg/mL hydrochloride. The mixture was sonicated for 30min to produce a clear solution. 1mL of the soluion was filtered and measured by HPLC. See "2.3.4" for the HPLC analysis method. The content of related substances was calculated according to the peak area normalization method, and the results are shown in Table 32 below. Table 32 HPLC data of hydrochloride in stability experimental conditions for 30 days
# [4] = Thermodynamic stability experiment of crystal form (pulping in solvents, XRPD); conditions: for Results after pulping (crystal form by XRPD): pulped for 1 week at room temperature and 50°C
# Experimental: An organic solvent with a certain solubility was selected. […] The supernatant was discarded, and the solid was dried in vacuum (-0.1 Mpa) overnight at 50°C. The XRPD of the solid was determined and compared with XRPD of raw compound salt.
# [5] = Grinding crystal transformation test; conditions: ground in a mortar for 5 min
# [6] = Pressure crystal transformation test; conditions: tablet press at maximum pressure
# Excerpt: The tablet press was adjusted to the maximum pressure. It was pressed into a tablet and then was subjected to PXRD characterization.
# [7] = Salt form quantification (HPLC-ELSD); conditions: Conclusion from Cl- content compared with theoretical values
# Experimental: The number of acids binding in the salt form was quantified by HPLC-ELSD test. An appropriate amount of NaCl was weighed, and a series of linear solutions of different concentrations with the diluent acetonitrile-water (50:50) was prepared. […] The above linear solution and hydrochloride samples solution was taken to filter. [table]
smiles,measurement,setting,value
O=C(N[C@H]1C[C@H](CCN2CCN(c3cccc(Cl)c3Cl)CC2)C1)c1ncco1 [crystal form A of hydrochloride],hygroscopicity,[1],slightly hygroscopic
same,XRPD pattern after humidification and dehumidification,"[1]; 2 cycles, 0 to 95% relative humidity",does not change
same,hygroscopic weight gain,[1]; RH 80%,0.509%
same,crystal form stability (impurities),[2],stable under all conditions
same,crystal form change (PXRD),[3],does not undergo crystal form change
same,impurities (HPLC),[3],do not increase significantly
same,Results after pulping (crystal form by XRPD),"[4]; 1,4-Dioxane",Crystal form A
same,crystal form after being pulped by different solvents (XRPD),[4]; 1 week at room temperature and 50°C,the crystal form does not change
same,Results after pulping (crystal form by XRPD),[4]; 2-Butanone,Crystal form A
same,Results after pulping (crystal form by XRPD),[4]; 2-Methyl-tetrahydrofuran,Crystal form A
same,Results after pulping (crystal form by XRPD),[4]; Acetone,Crystal form A
same,Results after pulping (crystal form by XRPD),[4]; Acetonitrile,Crystal form A
same,Results after pulping (crystal form by XRPD),[4]; Dichloromethane,Crystal form A
same,Results after pulping (crystal form by XRPD),[4]; Ethanol,Crystal form A
same,Results after pulping (crystal form by XRPD),[4]; Ethyl acetate,Crystal form A
same,Results after pulping (crystal form by XRPD),[4]; Ethyl formate,Crystal form A
same,Results after pulping (crystal form by XRPD),[4]; Isopropanol,Crystal form A
same,Results after pulping (crystal form by XRPD),[4]; Methanol,Crystal form A
same,Results after pulping (crystal form by XRPD),[4]; Methyl tert-butyl ether,Crystal form A
same,Results after pulping (crystal form by XRPD),[4]; Tetrahydrofuran,Crystal form A
same,Results after pulping (crystal form by XRPD),[4]; Toluene,Crystal form A
same,Results after pulping (crystal form by XRPD),[4]; n-Heptane,Crystal form A
same,crystal transformation before and after grinding (PXRD),[5],didn't undergo crystal transformation
same,crystal transformation before and after pressure (PXRD),[6],didn't undergo crystal transformation
same,The number of hydrochloric acid binding,[7],The number of hydrochloric acid binding in crystal form A of hydrochloride is 1
